{"source": "ChEMBL document CHEMBL1146484", "about": "“Current developments in the discovery and design of new drug candidates from plant natural product leads” (J Nat Prod, 2004)", "key": {"[1]": {"test_system": "Human immunodeficiency virus", "assay": "Antiviral activity against HIV", "assay_type": "functional, organism-based", "conditions": "Human immunodeficiency virus 1"}, "Mus musculus": {"test_system": "Mus musculus", "assay": "Toxicity in ip dosed nude mouse", "assay_type": "organism-based", "conditions": "in vivo"}, "[2]": {"assay": "Cytotoxicity against human renal cancer cells", "assay_type": "functional", "conditions": "Cancer cell lines"}, "[3]": {"assay": "Cytotoxicity against human melanoma cells", "assay_type": "functional", "conditions": "Melanoma cell"}, "KB": {"test_system": "KB", "assay": "Cytotoxicity against human KB cells", "assay_type": "functional", "conditions": "for EC50: read-out: ED50 (the source's name); for IC50: read-out: ID50 (the source's name); for CC50: read-out: LD50 (the source's name)"}, "RPMI-7951": {"test_system": "RPMI-7951", "assay": "Cytotoxicity against human RPMI7951 cells", "assay_type": "functional", "conditions": "read-out: ED50 (the source's name)"}, "[4]": {"assay": "Inhibition of tubulin polymerization"}, "[5]": {"assay": "Cytotoxicity against human NCI60 cells", "assay_type": "functional", "conditions": "for TGI: read-out: pGI100 (converted)"}, "A549": {"test_system": "A549", "assay": "Cytotoxicity against human A549 cells", "assay_type": "functional", "conditions": "read-out: ED50 (the source's name)"}, "MCF7": {"test_system": "MCF7", "assay": "Cytotoxicity against human MCF7 cells", "assay_type": "functional", "conditions": "for EC50: read-out: ED50 (the source's name)"}, "SK-MEL-2": {"test_system": "SK-MEL-2", "assay": "Cytotoxicity against human SK-MEL-2 cells", "assay_type": "functional", "conditions": "read-out: ED50 (the source's name)"}, "CAKI-1": {"test_system": "CAKI-1", "assay": "Cytotoxicity against human Caki1 cells", "assay_type": "functional", "conditions": "read-out: ED50 (the source's name)"}, "HCT-8": {"test_system": "HCT-8", "assay": "Cytotoxicity against human HCT8 cells", "assay_type": "functional", "conditions": "read-out: ED50 (the source's name)"}, "[6]": {"target": "DNA topoisomerase 2-alpha (Homo sapiens) (UniProt P11388)", "sequence (P11388 whole entry)": "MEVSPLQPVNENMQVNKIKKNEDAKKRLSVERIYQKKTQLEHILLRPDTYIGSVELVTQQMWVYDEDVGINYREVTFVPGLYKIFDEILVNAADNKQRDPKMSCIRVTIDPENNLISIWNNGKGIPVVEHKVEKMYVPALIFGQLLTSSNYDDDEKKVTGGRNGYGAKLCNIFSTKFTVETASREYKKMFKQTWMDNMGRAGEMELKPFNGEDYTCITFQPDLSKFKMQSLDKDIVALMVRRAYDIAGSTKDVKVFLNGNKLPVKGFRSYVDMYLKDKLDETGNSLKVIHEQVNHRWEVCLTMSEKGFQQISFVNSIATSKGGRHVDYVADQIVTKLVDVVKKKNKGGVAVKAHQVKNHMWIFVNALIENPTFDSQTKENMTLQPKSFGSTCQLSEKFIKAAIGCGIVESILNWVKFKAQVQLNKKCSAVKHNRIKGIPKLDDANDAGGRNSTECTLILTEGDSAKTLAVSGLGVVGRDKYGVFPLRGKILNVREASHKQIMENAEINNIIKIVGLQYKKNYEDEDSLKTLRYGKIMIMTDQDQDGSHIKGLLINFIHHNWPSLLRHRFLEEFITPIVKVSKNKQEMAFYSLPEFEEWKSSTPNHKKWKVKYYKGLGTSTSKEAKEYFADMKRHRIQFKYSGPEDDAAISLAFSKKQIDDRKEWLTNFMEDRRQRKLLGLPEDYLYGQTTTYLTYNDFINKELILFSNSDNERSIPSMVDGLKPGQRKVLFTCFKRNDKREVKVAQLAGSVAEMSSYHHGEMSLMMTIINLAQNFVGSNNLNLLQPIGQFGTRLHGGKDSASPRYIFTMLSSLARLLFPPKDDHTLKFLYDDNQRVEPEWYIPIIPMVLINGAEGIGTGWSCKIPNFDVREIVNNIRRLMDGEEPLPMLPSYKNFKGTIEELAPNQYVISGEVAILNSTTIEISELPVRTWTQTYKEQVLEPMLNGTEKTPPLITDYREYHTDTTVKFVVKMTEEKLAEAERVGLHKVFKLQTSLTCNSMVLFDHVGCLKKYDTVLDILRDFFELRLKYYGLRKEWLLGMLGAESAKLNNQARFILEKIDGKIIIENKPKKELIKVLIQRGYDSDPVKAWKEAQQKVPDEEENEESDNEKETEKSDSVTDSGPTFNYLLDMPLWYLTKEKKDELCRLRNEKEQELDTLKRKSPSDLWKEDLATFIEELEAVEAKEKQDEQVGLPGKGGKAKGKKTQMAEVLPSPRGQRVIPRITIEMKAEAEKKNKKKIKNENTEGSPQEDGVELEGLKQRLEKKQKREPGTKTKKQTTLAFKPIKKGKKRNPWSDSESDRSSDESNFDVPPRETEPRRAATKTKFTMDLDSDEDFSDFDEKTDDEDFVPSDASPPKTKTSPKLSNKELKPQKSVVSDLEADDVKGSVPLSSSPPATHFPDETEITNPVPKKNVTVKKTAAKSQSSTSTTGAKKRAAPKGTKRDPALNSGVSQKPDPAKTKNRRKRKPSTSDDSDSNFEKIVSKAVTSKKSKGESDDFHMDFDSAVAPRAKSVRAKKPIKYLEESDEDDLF", "assay": "Inhibition of topoisomerase 2"}, "[7]": {"target": "DNA topoisomerase 2-alpha (Homo sapiens) (UniProt P11388)", "assay": "Inhibition of human DNA topoisomerase 2"}, "[8]": {"target": "DNA topoisomerase 2-alpha (Homo sapiens) (UniProt P11388)", "assay": "Inhibition of human DNA topoisomerase 2 assessed as DNA cleavage at 20 uM"}, "MOLT-4": {"test_system": "MOLT-4", "assay": "Cytotoxicity against human MOLT4 cells", "assay_type": "functional"}}, "note": "The source made the active and inactive calls. The rule behind the calls is not given here."}
{"smiles": "C=C(C)[C@@H]1CC[C@]2(C(=O)O)CC[C@]3(C)[C@H](CC[C@@H]4[C@@]5(C)CC[C@H](OC(=O)CC(C)(C)C(=O)O)C(C)(C)[C@@H]5CC[C@]43C)[C@@H]12", "note": "[BEVIRIMAT]", "values": [{"measurement": "EC50", "setting": "[1]", "result": "< 0.35", "unit": "nM"}]}
{"smiles": "CC[C@@]1(O)C(=O)OCc2c1cc1n(c2=O)Cc2c-1nc1ccccc1c2/C=N/c1ccccc1N[C@@H]1c2cc3c(cc2[C@@H](c2cc(OC)c(O)c(OC)c2)[C@H]2C(=O)OC[C@@H]21)OCO3", "values": [{"measurement": "LD50", "setting": "Mus musculus", "result": "> 50", "unit": "mg/kg/day"}]}
{"smiles": "COc1c2c(cc3c1-c1c(cc4c(c1OC)OCO4)[C@H](OC(=O)c1ccccc1)[C@@](C)(O)[C@@H](C)C3)OCO2", "note": "[SCHISANTHERIN D]", "values": [{"measurement": "EC50", "setting": "[1]", "result": 0.5, "unit": "µg/mL"}]}
{"smiles": "COc1c2c(cc3c1-c1c(cc4c(c1OC)OCO4)C[C@H](C)[C@H](C)C3)OCO2", "note": "[SCHISANDRIN C]", "values": [{"measurement": "EC50", "setting": "[1]", "result": 1.2, "unit": "µg/mL"}]}
{"smiles": "O=c1cc(-c2ccccc2F)[nH]c2ccc(N3CCCC3)cc12", "values": [{"measurement": "GI50", "setting": "[2]", "result": 22.4, "unit": "nM"}, {"measurement": "GI50", "setting": "[3]", "result": "≤ 10", "unit": "nM"}]}
{"smiles": "COC(=O)[C@@]12OC[C@]34[C@H](OC(=O)C[C@@H]13)[C@H](OC(=O)C=C(C)C)[C@H]1C(C)=C(O[C@@H]3O[C@H](CO)[C@@H](O)[C@H](O)[C@H]3O)C(=O)C[C@]1(C)[C@H]4[C@@H](O)[C@@H]2O", "note": "[BRUCEOSIDE C]", "values": [{"measurement": "EC50", "setting": "KB", "result": "< 0.1", "unit": "µg/mL"}, {"measurement": "EC50", "setting": "RPMI-7951", "result": "< 0.1", "unit": "µg/mL"}]}
{"smiles": "Cc1cc(=O)oc2c3c(ccc12)OC(C)(C)[C@H](OC(=O)C12CCC(C)(C(=O)O1)C2(C)C)[C@@H]3OC(=O)C12CCC(C)(C(=O)O1)C2(C)C", "note": "(stereo partly drawn)", "values": [{"measurement": "EC50", "setting": "[1]", "result": 0.00016, "unit": "nM"}]}
{"smiles": "COc1cc2c(c(OC)c1OC)-c1ccc(SC)c(=O)cc1[C@@H](OC(C)=O)CC2", "values": [{"measurement": "IC50", "setting": "[4]", "result": 560, "unit": "nM"}]}
{"smiles": "CC1(C)CC[C@]2(C(=O)O)CC[C@]3(C)C(=CC[C@@H]4[C@@]5(C)CC[C@H](OC(=O)CC(C)(C)C(=O)O)C(C)(C)[C@@H]5CC[C@]43C)[C@H]2C1", "values": [{"measurement": "EC50", "setting": "[1]", "result": 0.0039, "unit": "µg/mL"}]}
{"smiles": "COc1cc2c(c(OC)c1OC)-c1ccc(SC)c(=O)cc1[C@@H](OC(=O)c1ccncc1)CC2", "values": [{"measurement": "IC50", "setting": "[4]", "result": 560, "unit": "nM"}]}
{"smiles": "CC1(C)C=C2[C@H]3CC[C@@H]4[C@@]5(C)CCC(=O)C(C)(C)[C@@H]5CC[C@@]4(C)[C@]3(C)CC[C@@]2(C(=O)O)CC1", "note": "[MORONIC ACID]", "values": [{"measurement": "EC50", "setting": "[1]", "result": "< 0.1", "unit": "µg/mL"}]}
{"smiles": "Cc1cnc2[nH]c(-c3cccc(Cl)c3)cc(=O)c2c1", "values": [{"measurement": "GI50", "setting": "[5]", "result": 269, "unit": "nM"}, {"measurement": "TGI", "setting": "[5]", "result": 72400, "unit": "nM"}]}
{"smiles": "CC(=O)O[C@@H]1[C@H](OC(=O)CC(C)C)c2c(ccc3ccc(=O)oc23)OC1(C)C", "note": "[SUKSDORFIN]", "values": [{"measurement": "EC50", "setting": "[1]", "result": 1300, "unit": "nM"}]}
{"smiles": "COc1cc2c(c(OC)c1OC)-c1c(cc3c(c1OC)OCO3)[C@H](OC(=O)c1ccccc1)[C@@](C)(O)[C@@H](C)C2", "note": "[GOMISIN G]", "values": [{"measurement": "EC50", "setting": "[1]", "result": 0.006, "unit": "µg/mL"}]}
{"smiles": "CC1(C)Oc2ccc3ccc(=O)oc3c2[C@@H](OC(=O)C23CCC(C)(C(=O)O2)C3(C)C)[C@H]1OC(=O)C12CCC(C)(C(=O)O1)C2(C)C", "note": "(stereo partly drawn)", "values": [{"measurement": "EC50", "setting": "[1]", "result": 0.4, "unit": "nM"}]}
{"smiles": "COc1cccc([C@@H]2CC(=O)c3cc(N4CCCC4)ccc3N2)c1", "values": [{"measurement": "EC50", "setting": "KB", "result": 0.008, "unit": "µg/mL"}, {"measurement": "EC50", "setting": "A549", "result": 0.008, "unit": "µg/mL"}, {"measurement": "EC50", "setting": "MCF7", "result": 0.008, "unit": "µg/mL"}, {"measurement": "EC50", "setting": "SK-MEL-2", "result": 0.008, "unit": "µg/mL"}, {"measurement": "EC50", "setting": "CAKI-1", "result": 0.008, "unit": "µg/mL"}, {"measurement": "EC50", "setting": "HCT-8", "result": 0.008, "unit": "µg/mL"}]}
{"smiles": "Cc1cnc2[nH]c(-c3cccc(F)c3)cc(=O)c2c1", "values": [{"measurement": "GI50", "setting": "[5]", "result": 269, "unit": "nM"}, {"measurement": "TGI", "setting": "[5]", "result": 72400, "unit": "nM"}]}
{"smiles": "COc1cc2c(c(OC)c1OC)-c1ccc(SC)c(=O)cc1C(=O)CC2", "note": "[THIOCOLCHICONE]", "values": [{"measurement": "IC50", "setting": "[4]", "result": 560, "unit": "nM"}]}
{"smiles": "COc1cc([C@@H]2c3cc4c(cc3[C@@H](O[C@@H]3O[C@@H]5CO[C@@H](C)O[C@H]5[C@H](O)[C@H]3O)[C@H]3COC(=O)[C@H]23)OCO4)cc(OC)c1O", "note": "[ETOPOSIDE]", "values": [{"measurement": "IC100", "setting": "[6]", "result": 100, "unit": "µM"}, {"measurement": "IC50", "setting": "KB", "result": 200, "unit": "nM"}, {"measurement": "CC50", "setting": "KB", "result": 3000, "unit": "nM"}]}
{"smiles": "CNc1ccc2c(cc1=O)[C@@H](NC(C)=O)CCc1cc(O)c(O)c(O)c1-2", "values": [{"measurement": "Activity", "setting": "[6]", "result": "Active"}, {"measurement": "EC50", "setting": "MCF7", "result": 0.36, "unit": "µg/mL"}, {"measurement": "EC50", "setting": "CAKI-1", "result": 0.72, "unit": "µg/mL"}]}
{"smiles": "COc1cc2c(c(OC)c1OC)-c1ccc(OC)c(=O)cc1[C@@H](NC(C)=O)CC2", "note": "[COLCHICINE]", "values": [{"measurement": "IC50", "setting": "[4]", "result": 650, "unit": "nM"}]}
{"smiles": "COc1cc2c(c(OC)c1OC)-c1ccc(SC)c(=O)cc1[C@@H](O)CC2", "values": [{"measurement": "IC50", "setting": "[4]", "result": 560, "unit": "nM"}]}
{"smiles": "Cc1ccc2c(=O)cc(-c3cccc(F)c3)[nH]c2n1", "values": [{"measurement": "GI50", "setting": "[5]", "result": 269, "unit": "nM"}, {"measurement": "TGI", "setting": "[5]", "result": 72400, "unit": "nM"}]}
{"smiles": "CC1(C)CC[C@]2(C(=O)O)CC[C@]3(C)C(=CC[C@@H]4[C@@]5(C)CC[C@H](O)C(C)(C)[C@@H]5CC[C@]43C)[C@@H]2C1", "note": "[OLEANOLIC_ACID]", "values": [{"measurement": "EC50", "setting": "[1]", "result": 1.7, "unit": "µg/mL"}]}
{"smiles": "CC(=O)N[C@H]1CCc2cc(O)c(O)c(O)c2-c2ccc(NC(=O)c3ccc(Cl)cc3)c(=O)cc21", "values": [{"measurement": "Activity", "setting": "[6]", "result": "Active"}, {"measurement": "EC50", "setting": "MCF7", "result": 0.48, "unit": "µg/mL"}, {"measurement": "EC50", "setting": "CAKI-1", "result": 0.98, "unit": "µg/mL"}]}
{"smiles": "COc1cc2c(c(OC)c1OC)-c1c(cc3c(c1OC)OCO3)C[C@@H](C)[C@@H](C)C2", "note": "[KADSURANIN]", "values": [{"measurement": "EC50", "setting": "[1]", "result": 0.8, "unit": "µg/mL"}]}
{"smiles": "COc1cc([C@@H]2c3cc4c(cc3[C@@H](Nc3ccc(F)cc3)[C@H]3COC(=O)[C@H]23)OCO4)cc(OC)c1O", "values": [{"measurement": "ID50", "setting": "[7]", "result": 50000, "unit": "nM"}, {"measurement": "inhibition", "setting": "[8]", "result": 139, "unit": "%"}]}
{"smiles": "COc1cc([C@@H]2c3cc4c(cc3[C@@H](Nc3ccc(NC(=O)c5cc([N+](=O)[O-])cn5C)cc3)[C@H]3COC(=O)[C@H]23)OCO4)cc(OC)c1O", "values": [{"measurement": "IC100", "setting": "[6]", "result": 12.5, "unit": "µM"}, {"measurement": "IC50", "setting": "KB", "result": 40, "unit": "nM"}, {"measurement": "CC50", "setting": "KB", "result": 150, "unit": "nM"}, {"measurement": "GI50", "setting": "MCF7", "result": "< 10", "unit": "nM"}, {"measurement": "GI50", "setting": "MOLT-4", "result": "< 10", "unit": "nM"}]}
{"smiles": "COc1cc([C@@H]2c3cc4c(cc3[C@@H](Nc3ccccc3)[C@H]3COC(=O)[C@H]23)OCO4)cc(OC)c1O", "values": [{"measurement": "ID50", "setting": "[7]", "result": 50000, "unit": "nM"}, {"measurement": "inhibition", "setting": "[8]", "result": 125, "unit": "%"}]}
{"smiles": "COc1cccc(-c2cc(=O)c3ccc(C)nc3[nH]2)c1", "values": [{"measurement": "GI50", "setting": "[5]", "result": 269, "unit": "nM"}, {"measurement": "TGI", "setting": "[5]", "result": 72400, "unit": "nM"}]}
